Experimental findings from patent publication US8710233B2 (Gruenenthal GmbH, priority 2005, dated 2014) are described below.

Common to all, as to format: cell-based
Test [1] deals with T1, vanilloid receptor 1 (VR1/TRPV1) of the rat species (Rattus norvegicus, UniProt O35433).
T1 construct: The spinal column is removed from decapitated rats; from tissue; host or cells: primary cells dissociated from rat dorsal root ganglia
The experiment in a line: FLIPR Ca2+ influx assay on rat dorsal root ganglia cells (pharmacological method I). The settings on record: for inhibition in percent, Ki (rat) Cap.: @ 10 μM. An excerpt: I. Functional Investigation of the Vanilloid Receptor 1 (VR1/TRPV1 Receptor)
The agonistic or antagonistic action of the substances to be investigated on the vanilloid receptor 1 (VR1/TRPV1) of the rat species may be determined by the following assay. According to this assay, the influx of Ca^2+ through the receptor channel is quantified with the assistance of a Ca^2+-sensitive dye (type Fluo-4, Molecular Probes Europe BV, Leiden, Netherlands) in a Fluorescent Imaging Plate Reader (FLIPR, Molecular Devices, Sunnyvale, USA).
The spinal column is removed from decapitated rats and is placed directly in cold, i.e. located in an ice bath, HBSS buffer (Hank's buffered saline solution, Gibco Invitrogen GmbH, Karlsruhe, Germany) combined with 1 vol. % (percent by volume) of an AA solution (antibiotic/antimycotic solution, PAA, Pasching, Austria). The spinal column is cut open longitudinally and removed together with fasciae from the spinal canal. The dorsal root ganglia (DRGs) are then removed and in turn stored in cold HBSS buffer combined with 1 vol. % of an AA solution. The DRGs, from which all traces of blood and spinal nerves have been removed, are in each case transferred into 500 μL of cold collagenase type 2 (PAA, Pasching, Austria) and incubated for 35 minutes at 37° C. […] Once incubation is complete, the enzyme solution is carefully removed by pipette and the DRGs, which are left behind, are in each case combined with 500 μL of complete medium.
The DRGs are in each case repeatedly suspended, drawn by means of a syringe through […], no. 12 and no. 16 cannulas and transferred into 50 mL Falcon microtubes and each tube is made up to 15 mL with complete medium. The contents of each Falcon microtube are in each case filtered through a 70 μm Falcon filter insert and centrifuged for 10 minutes at 1200 revolutions and room temperature. The resultant pellet is in each case resuspended in 250 μL of complete medium and the cell count determined.
The number of cells in the suspension is adjusted to 3×10^5 per mL and a 150 μL portion of this suspension is in each case placed in a well of the cell culture plate which has been coated as described above.
The cells are then loaded with 2 μM Fluo-4 and 0.01 vol. % Pluronic F127 (Molecular Probes Europe BV, Leiden, Netherlands) in HBSS buffer (Hank's buffered saline solution, Gibco Invitrogen GmbH, Karlsruhe, Germany) for 30 min at 37° C., washed 3× with HBSS buffer and, after a further 15 minutes' incubation at room temperature, used for Ca^2+ measurement in the FLIPR assay. […] Quantification proceeds by measuring the highest fluorescence intensity (FC, fluorescence counts) over time.
The FLIPR protocol comprises 2 additions of substance. The compounds to be tested (10 μM) are firstly pipetted onto the cells and Ca^2+ influx is compared with the control (capsaicin 10 μM). This provides the percentage activation relative to the Ca^2+ signal after addition of 10 μM of capsaicin (CP). After 5 minutes' incubation, 100 nM of capsaicin are added and the influx of Ca^2+ is again determined.
Desensitising agonists and antagonists result in suppression of Ca^2+ influx. The percentage inhibition in comparison with the maximum achievable inhibition with 10 μM capsaicin is calculated.
Triplicate determinations (n═3) are performed and these are repeated in at least 3 independent experiments […].

Another test concerns the target T2, vanilloid receptor (VR1) (Homo sapiens, UniProt Q8NER1).
T2 construct: expressed in transfected cells; host or cells: CHO K1 cells (ECACC), stably transfected
Description: FLIPR Ca2+ influx assay on CHO K1 cells transfected with the VR1 gene (pharmacological method II). The following applies: for inhibition in percent, Ki (human) Cap.: @ 10 μM.

The next test deals with VR1/TRPV1 receptor (Homo sapiens, UniProt Q8NER1). Description: IC50 (human) after pH stimulus.
Where [2] appears, read: Table 2, displacement of capsaicin (100 nM), Cheng-Prusoff, read-out: Ki (rat).
Setting [3] is: Table 2, displacement of capsaicin (100 nM), Cheng-Prusoff, read-out: Ki (human).
Setting [4] is: table 4, capsaicin, read-out: Ki (rat) Cap.
The mark [5] stands for this setting: table 4, capsaicin, read-out: Ki (human) Cap.
Where [6] appears, read: Ki (rat), Table 2, displacement of capsaicin (100 nM), Cheng-Prusoff.

pIC50, pKi: −log10 of the molar value. Where two headings read alike, the source gives them in different places.

T1 sequence (O35433 whole entry): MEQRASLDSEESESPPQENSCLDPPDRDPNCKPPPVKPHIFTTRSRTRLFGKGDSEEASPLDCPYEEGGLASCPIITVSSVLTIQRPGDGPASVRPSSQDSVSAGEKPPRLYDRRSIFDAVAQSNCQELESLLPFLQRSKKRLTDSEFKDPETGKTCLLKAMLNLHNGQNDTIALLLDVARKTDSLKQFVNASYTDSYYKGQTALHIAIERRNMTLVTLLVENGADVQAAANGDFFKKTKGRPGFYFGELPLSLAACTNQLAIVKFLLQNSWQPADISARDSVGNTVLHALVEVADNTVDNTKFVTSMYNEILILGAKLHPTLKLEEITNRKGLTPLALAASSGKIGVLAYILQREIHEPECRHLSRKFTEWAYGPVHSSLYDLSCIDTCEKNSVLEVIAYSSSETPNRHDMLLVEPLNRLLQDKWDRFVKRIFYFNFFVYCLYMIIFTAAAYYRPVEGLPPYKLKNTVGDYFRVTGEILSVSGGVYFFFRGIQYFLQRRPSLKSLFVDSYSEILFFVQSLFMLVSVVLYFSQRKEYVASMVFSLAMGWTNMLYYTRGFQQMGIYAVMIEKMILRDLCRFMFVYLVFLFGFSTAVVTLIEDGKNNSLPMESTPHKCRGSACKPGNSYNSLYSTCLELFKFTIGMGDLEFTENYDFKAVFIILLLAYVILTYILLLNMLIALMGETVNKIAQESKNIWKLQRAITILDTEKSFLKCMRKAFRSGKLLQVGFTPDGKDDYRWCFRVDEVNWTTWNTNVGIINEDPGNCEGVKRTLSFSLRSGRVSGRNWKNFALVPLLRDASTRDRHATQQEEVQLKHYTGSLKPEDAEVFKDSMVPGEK
T2 sequence (Q8NER1 whole entry): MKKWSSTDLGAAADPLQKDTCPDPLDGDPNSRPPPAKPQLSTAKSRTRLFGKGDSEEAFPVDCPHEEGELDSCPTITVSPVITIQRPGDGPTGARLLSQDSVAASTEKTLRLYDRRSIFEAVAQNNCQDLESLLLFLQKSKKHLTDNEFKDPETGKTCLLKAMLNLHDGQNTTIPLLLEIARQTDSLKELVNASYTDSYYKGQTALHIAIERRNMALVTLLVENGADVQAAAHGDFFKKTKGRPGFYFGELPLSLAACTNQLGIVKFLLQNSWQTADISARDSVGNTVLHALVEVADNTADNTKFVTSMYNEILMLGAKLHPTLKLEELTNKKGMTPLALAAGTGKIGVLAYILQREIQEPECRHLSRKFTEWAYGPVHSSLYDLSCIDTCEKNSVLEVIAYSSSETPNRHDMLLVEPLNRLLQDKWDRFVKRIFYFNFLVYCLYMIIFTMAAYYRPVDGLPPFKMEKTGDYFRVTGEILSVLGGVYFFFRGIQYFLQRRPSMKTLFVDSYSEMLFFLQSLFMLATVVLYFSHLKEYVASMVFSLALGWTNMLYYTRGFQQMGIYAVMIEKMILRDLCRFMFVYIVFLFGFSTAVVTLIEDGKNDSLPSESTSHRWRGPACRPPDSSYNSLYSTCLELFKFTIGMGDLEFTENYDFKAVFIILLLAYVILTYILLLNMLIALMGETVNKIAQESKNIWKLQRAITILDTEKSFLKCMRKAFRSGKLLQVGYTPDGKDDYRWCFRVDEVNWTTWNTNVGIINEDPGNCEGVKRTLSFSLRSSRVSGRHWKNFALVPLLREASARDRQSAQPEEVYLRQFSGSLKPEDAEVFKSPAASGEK
Chain of VR1/TRPV1 receptor (Q8NER1 whole entry): as above

In general, pKi refers to the negative decadic logarithm of the Ki, by convention in mol/L. What is called pIC50 is the IC50 on a negative log10 scale, so that one unit is a factor of ten. A lower pIC50 goes with a high IC50. As for `CC(C(=O)NCc1ccc(C(F)(F)F)nc1N1CCCC1)c1ccc(NS(C)(=O)=O)c(F)c1` (stereo not drawn) [Example 13, 2-(3-fluoro-4-(methylsulfonamido)phenyl)-N-((2-(pyrrolidin-1-yl)-6-(trifluoromethyl)pyridin-3-yl)methyl)propanamide], the pKi is 8.42 in test [1] (setting [2]) and 9.22 at vanilloid receptor (VR1) (setting [3]). The compound further gave a negative-log IC50 (pIC50) against VR1/TRPV1 receptor (Table 2) of 6.68.
In the case of `CCN(CC)c1nc(C(F)(F)F)ccc1CNC(=O)C(C)c1ccc(NS(C)(=O)=O)c(F)c1` (stereo not drawn) [Example 15, N-((2-(diethylamino)-6-(trifluoromethyl)pyridin-3-yl)methyl)-2-(3-fluoro-4-(methylsulfonamido)phenyl)propanamide], the values for the pKi (in test [1] (setting [4]); at vanilloid receptor (VR1) (setting [5])) were 7.92 and 8.46, respectively. On VR1/TRPV1 receptor (table 4), this compound gave a pIC50 of 6.83.
As to `COc1nc(C(F)(F)F)ccc1CNC(=O)C(C)c1ccc(NS(C)(=O)=O)c(F)c1` (stereo not drawn) [Example 18, 2-(3-fluoro-4-(methylsulfonamido)phenyl)-N-((2-methoxy-6-(trifluoromethyl)pyridin-3-yl)methyl)propanamide], the pKi in test [1] (setting [6]) was 7.33; at vanilloid receptor (VR1) (setting [3]) it was 7.16. Besides, the pIC50 at VR1/TRPV1 receptor (Table 2) is 5.57.
The like results for `CC(C)Oc1nc(C(F)(F)F)ccc1CNC(=O)C(C)c1ccc(NS(C)(=O)=O)c(F)c1` (stereo not drawn) [Example 20, 2-(3-fluoro-4-(methylsulfonamido)phenyl)-N-((2-isopropoxy-6-(trifluoromethyl)pyridin-3-yl)methyl)propanamide] were, in that order, 8.27, 8.68 and 7.03.
In the case of `CC(C(=O)NCc1ccc(C(F)(F)F)nc1OC1CCCC1)c1ccc(NS(C)(=O)=O)c(F)c1` (stereo not drawn) [Example 21, N-((2-cyclopentyloxy-6-(trifluoromethyl)pyridin-3-yl)methyl)-2-(3-fluoro-4-(methylsulfonamido)phenyl)propanamide], the pKi in test [1] (setting [2]) is 8.89; at vanilloid receptor (VR1) (setting [3]) it was 9.05. Besides, the pIC50 on VR1/TRPV1 receptor (Table 2) was 7.54.
The like results for `CC(C(=O)NCc1ccc(C(F)(F)F)nc1-c1ccccc1)c1ccc(NS(C)(=O)=O)c(F)c1` (stereo not drawn) [Example 22, 2-(3-fluoro-4-(methylsulfonamido)phenyl)-N-((2-phenyl-6-(trifluoromethyl)pyridin-3-yl)methyl)propanamide] were, in that order, 8.31, 8.19 and 7.21.
The like results for `C[C@H](C(=O)NCc1ccc(C(F)(F)F)cc1N1CCCCC1)c1ccc(NS(C)(=O)=O)c(F)c1` [Example 31, (S)-2-(3-fluoro-4-(methylsulfonamido)phenyl)-N-(2-(piperidin-1-yl)-4-(trifluoromethyl)benzyl)propanamide] were, in that order, 9.30, 9.22 and 7.30.
On to `CC(C(=O)NCc1ccc(C(F)(F)F)cc1N1CCOCC1)c1ccc(NS(C)(=O)=O)c(F)c1` (stereo not drawn) [Example 33, 2-(3-fluoro-4-(methylsulfonamido)phenyl)-N-(2-morpholino-4-(trifluoromethyl)benzyl)propanamide], for which the pKi in test [1] (setting [2]) is 8.32; at vanilloid receptor (VR1) (setting [3]) it was 8.14. The pIC50 against VR1/TRPV1 receptor (Table 2) is 5.86.
Turning to `CCCN(CCC)c1cc(C(F)(F)F)ccc1CNC(=O)C(C)c1ccc(NS(C)(=O)=O)c(F)c1` (stereo not drawn) [Example 37, N-(2-(dipropylamino)-4-(trifluoromethyl)benzyl)-2-(3-fluoro-4-(methylsulfonamido)phenyl)propanamide], the negative-log Ki (pKi) was 8.74 in test [1] (setting [4]) and 9.52 on vanilloid receptor (VR1) (setting [5]). At VR1/TRPV1 receptor (table 4), this compound gave a pIC50 of 7.58.
The like results for `CCCCOc1cc(C(F)(F)F)ccc1CNC(=O)C(C)c1ccc(NS(C)(=O)=O)c(F)c1` (stereo not drawn) [Example 40, N-(2-butoxy-4-(trifluoromethyl)benzyl)-2-(3-fluoro-4-(methylsulfonamido)-phenyl)propanamide] were, in that order, 9.40, 9.00 and 7.32.
Turning to `CC(C(=O)NCc1ccc(C(F)(F)F)cc1OC1CCCC1)c1ccc(NS(C)(=O)=O)c(F)c1` (stereo not drawn) [Example 42, N-(2-(cyclopentyloxy)-4-(trifluoromethyl)benzyl)-2-(3-fluoro-4-(methylsulfonamido)phenyl)propanamide], the values for the pKi (in test [1] (setting [4]); at vanilloid receptor (VR1) (setting [5])) were 9.30 and 9.22, respectively. The pIC50 against VR1/TRPV1 receptor (table 4) is 7.59.
In general, inhibition refers to how much of the control response was suppressed. Turning to `CC(C(=O)NCc1ccc(C(C)(C)C)cc1N1CCCCC1)c1ccc(NS(C)(=O)=O)c(F)c1` (stereo not drawn) [Example 63, N-(4-tert-butyl-2-(piperidin-1-yl)benzyl)-2-(3-fluoro-4-(methylsulfonamido)-phenyl)propanamide], the pKi in test [1] (setting [4]) was 7.62; on vanilloid receptor (VR1) (setting [5]), 7.54. The inhibition at 1 µM at VR1/TRPV1 receptor (@ 1 μM, ne = no effect, read-out: inhibition in percent, IC50 (human) after pH stimulus) came to 70%.
On to `CC(C(=O)NCc1ccc(C(C)(C)C)cc1C#N)c1ccc(NS(C)(=O)=O)c(F)c1` (stereo not drawn) [Example 70, N-(4-tert-butyl-2-cyanobenzyl)-2-(3-fluoro-4-(methylsulfonamido)-phenyl)propanamide], for which the results for the pKi (in test [1] (setting [2]); on vanilloid receptor (VR1) (setting [3])) were 8.05 and 7.81, respectively. The pIC50 against VR1/TRPV1 receptor (Table 2) was 5.83.
In the case of `C[C@H](C(=O)NCc1ccc(C(F)(F)F)nc1N1CCOCC1)c1ccc(NS(C)(=O)=O)c(F)c1` [Example 72, (S)-2-(3-Fluor-4-(methylsulfonamido)phenyl)-N-((2-morpholino-6-(trifluoromethyl)pyridin-3-yl)methyl)propanamide], the pKi in test [1] (setting [2]) is 6.91; on vanilloid receptor (VR1) (setting [3]) it was 7.49. On VR1/TRPV1 receptor (Table 2), the pIC50 is 5.78.
The like results for `CC(C(=O)NCc1ccc(C(F)(F)F)nc1N1CCN(Cc2ccccc2)CC1)c1ccc(NS(C)(=O)=O)c(F)c1` (stereo not drawn) [Example 73, N-((2-(4-benzylpiperazin-1-yl)-6-(trifluoromethyl)pyridin-3-yl)methyl)-2-(3-fluoro-4-(methylsulfonamido)phenyl)propanamide] were, in that order, 8.18, 8.06 and 6.20.
Consider `CC(C(=O)NCc1ccc(C(F)(F)F)nc1N1CCNCC1)c1ccc(NS(C)(=O)=O)c(F)c1` (stereo not drawn) [Example 74], for which the “inhibition in percent, Ki (rat) Cap.” value in test [1] is 70% @ 10 μM. Moreover, the “inhibition in percent, Ki (human) Cap.” value at vanilloid receptor (VR1) stood at 71% @ 10 μM. Moreover, at VR1/TRPV1 receptor (@ 10 μM), the “inhibition in percent, IC50 (human) after pH stimulus” value was found to be 35% @ 10 μM.
As to `CC(C(=O)NCc1ccc(C(F)(F)F)cc1Cl)c1ccc(NS(C)(=O)=O)c(F)c1` (stereo not drawn) [Example 75, N-(2-chloro-4-(trifluoromethyl)benzyl)-2-(3-fluoro-4-(methylsulfonamido)phenyl)propanamide], the values for the pKi (in test [1] (setting [2]); at vanilloid receptor (VR1) (setting [3])) were 7.89 and 8.40, respectively. Also, the pIC50 against VR1/TRPV1 receptor (Table 2) was 5.92.
`CC(C(=O)NCc1ncc(C(F)(F)F)cc1Cl)c1ccc(NS(C)(=O)=O)c(F)c1` (stereo not drawn) [Example 77]: the “inhibition in percent, Ki (rat) Cap.” value in test [1] was determined as 57% @ 10 μM. Besides, on vanilloid receptor (VR1), the “inhibition in percent, Ki (human) Cap.” value was 21% @ 10 μM. In addition, the “inhibition in percent, IC50 (human) after pH stimulus” value on VR1/TRPV1 receptor (@ 1 μM, ne = no effect) is “ne @ 1 μM”.
Regarding `CC1CC(C)CN(c2nc(C(F)(F)F)ccc2CNC(=O)C(C)c2ccc(NS(C)(=O)=O)c(F)c2)C1` (stereo not drawn) [Example 79, 2-(3-fluoro-4-methylsulfonamido-phenyl)-N-(2-3,5 dimethylpiperidin-1-yl-6-trifluoromethyl-pyridin-3-ylmethyl)-propionamide], the values for the pKi (in test [1] (setting [4]); on vanilloid receptor (VR1) (setting [5])) were 9.10 and 9.15, respectively. For the same compound, the pIC50 on VR1/TRPV1 receptor (table 4) was 7.59.
